We go through 68 sequences from the supplement of paper PMC11208160.

A short description of the series: recombinant UMI read abundance after kanamycin selection (control-corrected) (log10(CPM+1)); higher = more efficient recombination; extreme values may be limits of the assay; sequences stand for … in AGTGCAGAGAAAATCGGCCAGTTTTCTCTGCCTGCAGTCCGCATGCCGTGGGACCCCTTGGGTTCTAACCTGTTGCCTAGATTTATGCAGCGGACTGCCTTTCTCCCAAAGTGATAAACCGG…AGGTTGGTTTCACT; site = the 11-nt donor. An outline of the steps:
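Under IPTG (0.07 mM) plus kanamycin, or without selection, Escherichia coli carrying a UMI-tagged donor and donor-binding-loop pair library and a target plasmid for the IS621 bridge recombinase were plated in two replicates. Recombinant UMIs were PCR-amplified across the donor–target junction and sequenced. Counts were converted to CPM, averaged over replicates, scaled by control-derived factors and reported as log10(CPM+1).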
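Further: IS621 bridge recombinase in Escherichia coli cells against a fixed T5 target plasmid.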

Take “ATTGTGCCATGGACCGGTTTTCCCGGTAATCCGTATTTGAC (site ATTGTGCCTGT)”: the “recombinant UMI read abundance (log10)” value is 0.819.
Then “ATTGTGCCATGGACCGGTTTTCCCGGTAATCCGTATTTGCA (site ATTGTGCCTTG)”, with 0.682; and “ATTGTGCCATGGACCGGTTTTCCCGGTAATCCGTATTTGTG (site ATTGTGCCTCA)”, with 0.054.
Next, “ATTGTGTCATGGACCGGTTTTCCCGGTAATCCGTATTTGAC (site AATGTGTCTGT)”: 0; “ATTGTGTCATGGACCGGTTTTCCCGGTAATCCGTATTTGAC (site ACTGTGTCTGT)”: 1.41.
With “ATTGTGTCATGGACCGGTTTTCCCGGTAATCCGTATTTGAC (site AGTGTGTCTGT)”, the “recombinant UMI read abundance (log10)” value stood at 0.
As for “ATTGTGTCATGGACCGGTTTTCCCGGTAATCCGTATTTGAC (site ATTGTGTCTGT)”, the “recombinant UMI read abundance (log10)” value is 1.6.
Then “ATTGTTACATGGACCGGTTTTCCCGGTAATCCGTATTTGTG (site ATTGTTACTCA)”, with 0.634.
Next, “ATTTATACATGGACCGGTTTTCCCGGTAATCCGTATTTGAC (site ATATATACTGT)”: 0.718; “ATTTATACATGGACCGGTTTTCCCGGTAATCCGTATTTGAC (site ATCTATACTGT)”: 1.22.
Regarding “ATTTATACATGGACCGGTTTTCCCGGTAATCCGTATTTGAC (site ATGTATACTGT)”, the “recombinant UMI read abundance (log10)” value worked out at 1.21.
For the sequence “ATTTATACATGGACCGGTTTTCCCGGTAATCCGTATTTGAC (site ATTTATACTGT)”, the “recombinant UMI read abundance (log10)” value came out at 0.544.
“ATTTCTCCATGGACCGGTTTTCCCGGTAATCCGTATTTGAC (site ATTTCTCCTGT)”: the “recombinant UMI read abundance (log10)” value worked out at 0.
As for “CAAAATGCATGGACCGGTTTTCCCGGTAATCCGTATTTGAC (site CAAAATGCTGT)”, the “recombinant UMI read abundance (log10)” value was determined as 2.14.
In the case of “CAAACATCATGGACCGGTTTTCCCGGTAATCCGTATTTGCT (site CAAACATCTAG)”, the “recombinant UMI read abundance (log10)” value was 1.94.
Then “CAAACATCATGGACCGGTTTTCCCGGTAATCCGTATTTGCT (site CGATCATCTAG)”, with 0; and “CAAACGCCATGGACCGGTTTTCCCGGTAATCCGTATTTGTG (site CAAACGCCTCA)”, with 0.56.
On to “CAAACGCCATGGACCGGTTTTCCCGGTAATCCGTATTTGTG (site CAACCGCCTCA)”, for which the “recombinant UMI read abundance (log10)” value was determined as 0.033.
For the sequence “CAAACGCCATGGACCGGTTTTCCCGGTAATCCGTATTTGTG (site CAAGCGCCTCA)”, the “recombinant UMI read abundance (log10)” value stood at 0.0253.
For the sequence “CAAACGCCATGGACCGGTTTTCCCGGTAATCCGTATTTGTG (site CAATCGCCTCA)”, the “recombinant UMI read abundance (log10)” value came out at 0.0256.
In the case of “CAAATAACATGGACCGGTTTTCCCGGTAATCCGTATTTGCA (site CAAATAACTTG)”, the “recombinant UMI read abundance (log10)” value amounted to 1.1.
Next, “CAAATCCCATGGACCGGTTTTCCCGGTAATCCGTATTTGCT (site CAAATCCCTAG)”: 0; “CAAATCCCATGGACCGGTTTTCCCGGTAATCCGTATTTGCT (site CAACTCCCTAG)”: 0.00602; “CAAATCCCATGGACCGGTTTTCCCGGTAATCCGTATTTGCT (site CAAGTCCCTAG)”: 0.
In the case of “CAAATCCCATGGACCGGTTTTCCCGGTAATCCGTATTTGCT (site CAATTCCCTAG)”, the “recombinant UMI read abundance (log10)” value worked out at 0.
Take “CAAATGGCATGGACCGGTTTTCCCGGTAATCCGTATTTGCA (site CAAATGGCTTG)”: the “recombinant UMI read abundance (log10)” value was 2.04.
Next, “CAACAACCATGGACCGGTTTTCCCGGTAATCCGTATTTGTC (site CAACAACCTGA)”: 0.474; “CAACAGGCATGGACCGGTTTTCCCGGTAATCCGTATTTGTA (site CAACAGGCTTA)”: 1.18; “CAACATACATGGACCGGTTTTCCCGGTAATCCGTATTTGTG (site CAACATACTCA)”: 1.83.
Then “CAACCGCCATGGACCGGTTTTCCCGGTAATCCGTATTTGTG (site CAAACGCCTCA)”, with 0.00379; and “CAACCGCCATGGACCGGTTTTCCCGGTAATCCGTATTTGTG (site CAACCGCCTCA)”, with 0.00924.
On to “CAACCGCCATGGACCGGTTTTCCCGGTAATCCGTATTTGTG (site CAAGCGCCTCA)”, for which the “recombinant UMI read abundance (log10)” value is 0.0348.
Then “CAACCGCCATGGACCGGTTTTCCCGGTAATCCGTATTTGTG (site CAATCGCCTCA)”, with 0.0138; and “CAACGCACATGGACCGGTTTTCCCGGTAATCCGTATTTGTT (site CAACGCACTAA)”, with 1.62.
As for “CAAGAGCCATGGACCGGTTTTCCCGGTAATCCGTATTTGTG (site CAAGAGCCTCA)”, the “recombinant UMI read abundance (log10)” value stood at 1.28.
Next, “CAAGAGCCATGGACCGGTTTTCCCGGTAATCCGTATTTGTG (site CAAGCGCCTCA)”: 0.0351.
With “CAAGAGCCATGGACCGGTTTTCCCGGTAATCCGTATTTGTG (site CAAGGGCCTCA)”, the “recombinant UMI read abundance (log10)” value was 0.55.
Then “CAAGAGCCATGGACCGGTTTTCCCGGTAATCCGTATTTGTG (site CAAGTGCCTCA)”, with 0.0217.
Then “CAAGCAACATGGACCGGTTTTCCCGGTAATCCGTATTTGCT (site CAAGCAACTAG)”, with 1.57; and “CAAGCAACATGGACCGGTTTTCCCGGTAATCCGTATTTGCT (site CAAGCACCTAG)”, with 0.
With “CAAGCAACATGGACCGGTTTTCCCGGTAATCCGTATTTGCT (site CAAGCAGCTAG)”, the “recombinant UMI read abundance (log10)” value amounted to 0.
Next, “CAAGCAACATGGACCGGTTTTCCCGGTAATCCGTATTTGCT (site CAAGCATCTAG)”: 0.289; “CAAGCCACATGGACCGGTTTTCCCGGTAATCCGTATTTGGG (site CAAGACACTCC)”: 0.0254; “CAAGCCACATGGACCGGTTTTCCCGGTAATCCGTATTTGGG (site CAAGCCACTCC)”: 0.408.
Consider “CAAGCCACATGGACCGGTTTTCCCGGTAATCCGTATTTGGG (site CAAGGCACTCC)”, for which the “recombinant UMI read abundance (log10)” value stood at 0.00628.
Regarding “CAAGCCACATGGACCGGTTTTCCCGGTAATCCGTATTTGGG (site CAAGTCACTCC)”, the “recombinant UMI read abundance (log10)” value turned out to be 0.0106.
Next, “CAAGCCCCATGGACCGGTTTTCCCGGTAATCCGTATTTGCT (site CAAGCCCCTAG)”: 2.06; “CAAGCCGCATGGACCGGTTTTCCCGGTAATCCGTATTTGCT (site CAAGCAGCTAG)”: 2.06.
Then “CAAGCCGCATGGACCGGTTTTCCCGGTAATCCGTATTTGCT (site CAAGCCGCTAG)”, with 2.56; and “CAAGCCGCATGGACCGGTTTTCCCGGTAATCCGTATTTGCT (site CAAGCGGCTAG)”, with 0.00324; and “CAAGCCGCATGGACCGGTTTTCCCGGTAATCCGTATTTGCT (site CAAGCTGCTAG)”, with 0.
As for “CAAGCGCCATGGACCGGTTTTCCCGGTAATCCGTATTTGGG (site CAAGCGCCTCA)”, the “recombinant UMI read abundance (log10)” value turned out to be 0.0177.
Take “CAAGCGCCATGGACCGGTTTTCCCGGTAATCCGTATTTGGG (site CAAGCGCCTCC)”: the “recombinant UMI read abundance (log10)” value turned out to be 0.0155.
For the sequence “CAAGCGCCATGGACCGGTTTTCCCGGTAATCCGTATTTGGG (site CAAGCGCCTCG)”, the “recombinant UMI read abundance (log10)” value worked out at 0.0252.
Then “CAAGCGCCATGGACCGGTTTTCCCGGTAATCCGTATTTGGG (site CAAGCGCCTCT)”, with 0.0195; and “CAAGCGCCATGGACCGGTTTTCCCGGTAATCCGTATTTGTG (site AAAGCGCCTCA)”, with 0.0176; and “CAAGCGCCATGGACCGGTTTTCCCGGTAATCCGTATTTGTG (site CAAACGCCTCA)”, with 0.0285.
As for “CAAGCGCCATGGACCGGTTTTCCCGGTAATCCGTATTTGTG (site CAACCGCCTCA)”, the “recombinant UMI read abundance (log10)” value was found to be 0.0221.
Next, “CAAGCGCCATGGACCGGTTTTCCCGGTAATCCGTATTTGTG (site CAAGAGCCTCA)”: 0.0105; “CAAGCGCCATGGACCGGTTTTCCCGGTAATCCGTATTTGTG (site CAAGCACCTCA)”: 0.0231.
Then “CAAGCGCCATGGACCGGTTTTCCCGGTAATCCGTATTTGTG (site CAAGCCCCTCA)”, with 0.0168.
Then “CAAGCGCCATGGACCGGTTTTCCCGGTAATCCGTATTTGTG (site CAAGCGACTCA)”, with 0.0185; and “CAAGCGCCATGGACCGGTTTTCCCGGTAATCCGTATTTGTG (site CAAGCGCCTAA)”, with 0.00762; and “CAAGCGCCATGGACCGGTTTTCCCGGTAATCCGTATTTGTG (site CAAGCGCCTCA)”, with 0.0111.
With “CAAGCGCCATGGACCGGTTTTCCCGGTAATCCGTATTTGTG (site CAAGCGCCTCC)”, the “recombinant UMI read abundance (log10)” value worked out at 0.0342.
Next, “CAAGCGCCATGGACCGGTTTTCCCGGTAATCCGTATTTGTG (site CAAGCGCCTCG)”: 1.36; “CAAGCGCCATGGACCGGTTTTCCCGGTAATCCGTATTTGTG (site CAAGCGCCTCT)”: 0.218.
“CAAGCGCCATGGACCGGTTTTCCCGGTAATCCGTATTTGTG (site CAAGCGCCTGA)”: the “recombinant UMI read abundance (log10)” value was 0.706.
